Results as given in patent US8420859B2, “Formulations” (Syngenta Limited, priority 2006, dated 2013).
Values belong to the compound of their own block, whether it stands above or below them.

Experiments:
[1] = Solubility of cyproconazole in solvent (saturated solution, HPLC); assay type: physicochemical
Protocol: A sample of a solvent (200 microlitres) was added to a 4 ml volume glass vial. The pesticide cyproconazole was added to the vial and shaken to allow thorough mixing. The vial was left to equilibrate at 25° C. for 24 hours after which time it was examined visually. If the solid had dissolved a further quantity of cyproconazole was added, the vial shaken and then left for another 24 hours. This process was repeated until a saturated solution had formed after which time the vial was left to equilibrate for one week. The glass vial was thoroughly shaken using a laboratory Whirlimixer™ (T) (Fisons Scientific Instruments Limited), once per day, during this period. After this time the sample was centrifuged, the supernatant was sampled and analysed by HPLC with reference to a known weight of pure cyproconazole, in order to determine the concentration of cyproconazole in solution.

daphnia = test: Daphnia screening at 100 mg/l, immobility over 24 and 48 hours; assay type: in vivo; details: single concentration 100 mg/l, 18-19° C., four replicates; for EC50: 48 h
Protocol: Daphnia screening is commonly carried out to assess the inherent toxicity of chemicals. In this test five daphnia were placed in a beaker full of water held between 18 and 19° C. A lactamide chemical of interest was introduced to a concentration of 100 mg/l and the daphnia were monitored over 24 and 48 hours. Any daphnia which became immobile were recorded and the number was used for the assessment. If less than half of the daphnia were immobile after 48 hours the EC50 (48 hours) figure was classified as being >100 mg/l [otherwise, it would be less than or equal to 100 mg/l]. The lactamides of Table 6 were tested and their EC50 figures are tabulated (each experiment was replicated four times and in fact in all these tests none of the daphnia died): […]

[2] = system: amaranthus retroflexus (AMARE), alopecurus myosuorides (ALOMY), chenopodium album (CHEAL) and digitaria sanguinalis (DIGSA); test: Phytotoxic damage to young plants sprayed with solvent; assay type: in vivo; details: for Observed damage with solvent and Tween 20: solvent 1% w/w plus 0.5% Tween 20, 2500 litres per hectare
From the text: Formulations that are applied to crop plants can often lead to phytotoxic damage. This damage may take the form of the formation of necrotic spots where sprayed formulation has landed on leaf surfaces or it may take the form of chlorosis or larger scale damage to the plant such as dessication and death. In order to assess the safety of solvents to plant species they were sprayed at high usage rates and high water volumes onto very sensitive, young plants.
The plant species amaranthus retroflexus (AMARE), alopecurus myosuorides (ALOMY), chenopodium album (CHEAL) and digitaria sanguinalis (DIGSA) were grown from seed under glass house conditions until they reached the first leaf stage. A solvent was dissolved in distilled water at a rate of 1% w/w and sprayed onto the plants at a rate of 2500 litres per hectare using a laboratory track sprayer. The plants were maintained in the glasshouse for a period of 2 weeks in order to observe any effects on the plants. Untreated plants were grown and kept under the same conditions as a direct comparison to the treated samples. A second set of identical plants was also sprayed with the novel solvent however in this case 0.5% of the commercial surfactant Tween 20 (T) was also added to the spray solution. In this experiment control plants for comparison were also sprayed with 0.5% Tween 20 but not with the solvent. Plants were examined after 1, 2, 6, 7, 9 and 13 days to try to find evidence of damage to the treated plants. All experiments were carried out in duplicate.

skin = test: SIFT (Skin Integrity Function Test): electrical resistance of skin after exposure
From the text: Skin irritation and damage can be measured most easily by a well-known SIFT (Skin Integrity Function Test) procedure measuring the electrical resistance of the skin after exposure to the material of interest and comparing this to the electrical resistance of untreated skin. […] SLS is used in shampoo and toothpaste formulations and is a suitable control because much is known about its irritating behaviour on human skin and eye tissue.

[3] = Flash point, Seta flash 3 closed cup tester; assay type: physicochemical; details: Seta flash 3 closed cup tester model 30000-0
Protocol: The flammability of solvents is of concern to minimise risk during storage, transport and use. Typically the risk is assessed by measuring the flash point of the solvent. […] The measured value was 108° C.

[4] = solvent 1% w/w in distilled water, 2500 litres per hectare, first leaf stage plants, examined 1-13 days, duplicate
[5] = first leaf stage plants, examined 1-13 days, duplicate

Compound: CC(O)C(=O)N(CCO)Cc1ccccc1 (stereo not drawn) [N-hydroxyethyl-N-benzyl lactamide]
% cyproconazole in solution [1]: 25.0% w/w
EC50 (48 hours) (daphnia): >100 µg/mL
Observed damage with solvent [2, 4]: None
Observed damage with solvent and Tween 20 [2, 5]: None

Compound: CCCCC(CC)CNC(=O)C(C)O (stereo not drawn) [N-(2-ethylhexyl) lactamide]
EC50 (daphnia): > 100 µg/mL

Compound: CCCCN(C)C(=O)C(C)O (stereo not drawn) [N-methyl-N-butyl lactamide]
% cyproconazole in solution [1]: 33.0% w/w
EC50 (48 hours) (daphnia): >100 µg/mL
Observed damage with solvent [2, 4]: None
Observed damage with solvent and Tween 20 [2, 5]: None

Compound: CCN(CC)CCCNC(=O)C(C)O (stereo not drawn) [3-diethylamino propyl lactamide]
Observed damage with solvent [2, 4]: None

Compound: N-1-hyroxyethylbutyl lactamide
Observed damage with solvent [2, 4]: None
Observed damage with solvent and Tween 20 [2, 5]: None

Compound: CCCN(C)C(=O)C(C)O (stereo not drawn) [N-methyl-N-propyl lactamide]
% cyproconazole in solution [1]: 27.3% w/w
EC50 (48 hours) (daphnia): >100 µg/mL
Observed damage with solvent [2, 4]: None
Observed damage with solvent and Tween 20 [2, 5]: None

Compound: CCCCCCCCCCCCOS(=O)(=O)[O-].[Na+] [SLS, sodium lauryl sulphate]
Electrical resistivity (skin; 0.5% w/w aqueous solution, Table 2, untreated control 8.00): 2.03 kilo ohms
Electrical resistivity (skin; 1.0% solution, Table 2, untreated control 8.00): 1.84 kilo ohms
Electrical resistivity (skin; 10.0% solution, Table 2, untreated control 8.00): 0.91 kilo ohms
Electrical resistivity (skin; 10% w/w solution, skin post-treatment, mean of five measurements, untreated control 8.00): 0.91 kilo ohms

Compound: CC(O)C(=O)NCc1ccccc1 (stereo not drawn) [N-benzyl Lactamide]
Observed damage with solvent [2, 4]: None
Observed damage with solvent and Tween 20 [2, 5]: None

Compound: CC(C)CNC(=O)C(C)O (stereo not drawn) [N-isobutyl lactamide]
Observed damage with solvent [2, 4]: None
Observed damage with solvent and Tween 20 [2, 5]: None

% cyproconazole in solution [1]: 10.5% w/w
Compound: CC(C)CCC(C)NC(=O)C(C)O (stereo not drawn) [N-1,4-dimethylpentyl lactamide]

Compound: CCNC(=O)C(C)O (stereo not drawn) [N-ethyl lactamide]
Observed damage with solvent [2, 4]: None
Observed damage with solvent and Tween 20 [2, 5]: None

Compound: CCC(C)NC(=O)C(C)O (stereo not drawn) [N-sec-butyl lactamide]
Observed damage with solvent [2, 4]: None
Observed damage with solvent and Tween 20 [2, 5]: None

Compound: CC(O)C(=O)NCCO (stereo not drawn) [N-2-hydroxyethyl lactamide]
Observed damage with solvent ([2]; in vivo): None

Compound: C=CCNC(=O)C(C)O (stereo not drawn) [N-allyl lactamide]
EC50 (daphnia): > 100 µg/mL
Observed damage with solvent [2, 4]: None
Observed damage with solvent and Tween 20 [2, 5]: None

Compound: CCC(CO)NC(=O)C(C)O (stereo not drawn) [N-1-ethyl-2-hydroxyethyl lactamide]
Observed damage with solvent and Tween 20 [2, 5]: None

Compound: CC(O)C(=O)NN1CCOCC1 (stereo not drawn) [N-morpholinyl lactamide]
EC50 (daphnia): > 100 µg/mL
Observed damage with solvent [2, 4]: None
Observed damage with solvent and Tween 20 [2, 5]: None

Compound: CCC(CC)NC(=O)C(C)O (stereo not drawn) [N-(1-ethylpropyl) lactamide]
EC50 (daphnia): > 100 µg/mL

Compound: CC(C)NC(=O)C(C)O (stereo not drawn) [N-isopropyl Lactamide]
Observed damage with solvent [2, 4]: None
Observed damage with solvent and Tween 20 [2, 5]: None

Compound: CC(O)C(=O)NCCCN1CCOCC1 (stereo not drawn) [N-propyl morpholynyl lactamide]
Observed damage with solvent [2, 4]: None
Observed damage with solvent and Tween 20 [2, 5]: None

Compound: CC(O)C(=O)NN1CCCC1 (stereo not drawn) [N-pyrrolidinyl lactamide]
Observed damage with solvent [2, 4]: None
Observed damage with solvent and Tween 20 [2, 5]: None

Compound: CC(C)CC(C)NC(=O)C(C)O (stereo not drawn) [N-1,3-dimethyl butyl lactamide]
Observed damage with solvent [2, 4]: None
Observed damage with solvent and Tween 20 [2, 5]: None

Compound: CCN(CCO)C(=O)C(C)O (stereo not drawn) [N-ethyl-N-2-hydroxyethyl lactamide]
% cyproconazole in solution [1]: 18.2% w/w
EC50 (48 hours) (daphnia): >100 µg/mL
Observed damage with solvent [2, 4]: None
Observed damage with solvent and Tween 20 [2, 5]: None

Compound: N-2-hydroxyethyl piperidinyl lactamide
% cyproconazole in solution [1]: 19.3% w/w
EC50 (48 hours) (daphnia): >100 µg/mL
Observed damage with solvent [2, 4]: None
Observed damage with solvent and Tween 20 [2, 5]: None

Electrical resistivity (skin; 1 % w/w): 8.04 kilo ohms
Electrical resistivity (skin; 10 % w/w): 7.72 kilo ohms
flash point [3]: 108 °C
Compound: CC(O)C(=O)N(C)C (stereo not drawn) [dimethyl lactamide, N,N-dimethyl lactamide]
